{"source": "patent US20050244413A1", "about": "“Compositions and methods for treating cancer using cytotoxic CD44 antibody immunoconjugates and chemotherapeutic agents” (priority 2002, published 2005)", "key": {"[1]": {"tested_on": "antigen-positive A431 cells", "assay": "In vitro cytotoxicity, MTS/PMS cell proliferation assay, A431", "assay_type": "cell-based, human", "conditions": "4 days exposure", "protocol": "(§1) For determination of viable cells the Cell Titer 96® AQueous non-radioactive cell proliferation assay (Promega) was used. Five thousand cells per well were seeded into 96-well plates in 90 μl medium without phenole red. Cells were allowed to settle down for 1 to 3 h and then serial dilutions of the immunoconjugate in 10 μl PBS were added. Cells without immunoconjugate served as negative control. Cells were incubated for 4 days at 37° C. in a humified 5% CO2 atmosphere and then 20 μl MTS/PMS were added according to the manufacturer's recommendation. After additional 1 to 4 h incubation at 37° C. the absorbance at 490 nm was recorded using an ELISA plate reader. For each cell line triplicates were analyzed. The percentage of the surviving cell fraction and the IC50 value were calculated using the GraphPad Prism® (Version 3.0) software.\n(§2) The in vitro cytotoxicity of BIWI 1 was evaluated using the antigen-positive cell lines A431 and FaDu, and the antigen-negative cell line […]. Cells were exposed to different concentrations of BIWI 1 for 4 days, then stained with MTS/PMS and assayed on an ELISA plate reader. The surviving fractions of cells were then calculated using the GraphPad Prism® software package."}, "MDA-MB-453 tumors": {"tested_on": "MDA-MB-453 tumors", "conditions": "BIWI 1 75 μg/kg DM1 i.v. q7dx4", "method": "Experiments were performed using nude mice xenografted subcutaneously with the human breast carcinoma cell line MDA-MBA53. […] The efficacy of these combinations was compared to those of the respective monotherapies by i) analysing the tumor volumes over time and ii) by determining the time for tumors to reach a certain size (tumor growth delay).\nThe dilutions were prepared freshly for each application or stored at +4° C. during the whole treatment period. […] 200 μl of solutions with different concentrations were injected into the tail vein. Docetaxel (Taxotere®, Aventis, 10 mg/ml) was diluted in 0.9% NaCl. 200 μl of solutions with different concentrations were injected into the tail vein.\nBriefly, 1×10^7 MDA-MB-453 cells (ATCC No. HTB-131) were injected into the mammary fat pad of female NMRI nu/nu mice. After reaching a volume of approximately 1000 mm^3 tumors were excised, cut into 4×4 mm pieces and passaged further subcutaneously. Tumor fragments were cryoconserved in 90% RPMI 1640/10% dimethylsulfoxide (slow freezing process down to −80° C., storage in liquid nitrogen). For further passaging, frozen tumor fragments were thawed, washed 3 times in PBS and implanted subcutaneously into the right and left flanks of a 4-5 female NMRI nu/nu mice. Tumors of these mice were then used to prepare the animals for a therapy experiment. Tumors were excised with a size of approximately 10 mm in diameter, cut into 2×2 mm pieces and implanted subcutaneously into the right flank of 6-8 week old female NMRI nu/nu mice. Approximately twice as many animals as needed for the experiment were prepared. When tumors reached a size of 5-10 mm in diameter (10-14 days after implantation), animals were randomised and treatments were started. Animals were obtained from Harlan (Germany) or M&B (Denmark). Tumor sizes and body weights were recorded as described in Section 2.7."}, "[2]": {"tested_on": "antigen-negative cell line A549", "assay": "In vitro cytotoxicity, MTS/PMS cell proliferation assay, A549", "assay_type": "cell-based", "conditions": "A549 cells, highest concentration of BIWI 1 tested (5×1 0-7 M), 4 days", "protocol": "as §1, §2"}, "A431 tumors": {"tested_on": "A431 tumors", "assay": "BIWI 1 monotherapy in A431 xenografted nude mice", "assay_type": "in vivo, mouse", "conditions": "five consecutive days", "protocol": "(§3) In vivo anti-tumor efficacy of BIWI 1 was tested in three nude mouse xenograft models applying antigen-positive human tumors: A431 (ATCC # CRL 1555; epidermoid carcinoma of the vulva), FaDu (ATCC # HTB 43; squamous cell carcinoma of the pharynx), and MDA-MB 453 (ATCC # HTB-131; breast carcinoma). The cells were received from ATCC and cultured in RPMI1640 medium containing 10% fetal calf serum and supplements. 1×10^6 tumors cells were transplanted subcutaneously into the right flank of 6 week old female NMRI-nu/nu mice. Tumor growth was monitored by measuring tumor size. A tumor response was rated as complete response when the tumor completely disappeared at any time after start of treatment. The response was rated as partial response when the tumor volume decreased after treatment but thereafter started regrowing. The tolerability of the treatment was monitored by measuring mouse weight during the observation period.\nMice were randomised into the following treatment groups (treatment/initial mean tumor volume/tumor volume range/number of mice): • Group 1: Control (PBS)/185±217 mm^3/19-424 mm^3/5 mice. • Group 2: BIWA 4 (21 mg/kg/d)/133±115 mm^3/42-302 mm^3/5 mice. • Group 3: BIWI 1 (2.1 mg/kg/d)/107±63 mm^3/42-205 mm^3′/5 mice. • Group 4: BIWI 1 (7 mg/kg/d)/132±73 mm^3/42-205 mm^3/5 mice. • Group 5: BIWI 1 (21 mg/kg/d)/107±[…]/42-205 mm^3/5 mice.\n(§4) Groups of 5 mice were treated with 2.1 mg/kg/d BIWI 1, 7 mg/kg/d BIWI 1, 21 mg/kg/d BIWI 1, and 21 mg/kg/d control antibody, respectively. Treatment consisted of i.v. injections of BIWI 1 given on five consecutive days, starting at day 1."}, "mouse CD44v6": {"tested_on": "mouse CD44v6", "assay": "Cross-reactivity with mouse CD44v6", "assay_type": "binding"}, "FaDu tumors [3]": {"tested_on": "FaDu tumors", "assay": "BIWI 1 monotherapy in FaDu xenografted nude mice", "assay_type": "in vivo, mouse", "conditions": "five consecutive days", "protocol": "as §3\nMice were randomised into the following treatment groups (treatment/initial mean tumor volume/tumor volume range/number of mice): • Group 1: Control (PBS)/142±82 mm^3/34-268 mm^3 /8 mice. • Group 2: BIWA 4 (21 mg/kg/d)/134±86 mm^3/42-268 mm^3/6 mice. • Group 3: BIWI 1 (2.1 mg/kg/d) 149±96 mm^3/50-268 mm^3/6 mice. • Group 4: BIWI 1 (7 mg/kg/d)/132±97 mm^3 42-268 mm^3/6 mice. • Group 5: BIWI 1 (21 mg/kg/d)/129±74 mm^3/50-231 mm^3/6 mice.\nas §4, with “6” for “5”, “1. […] The remaining 2 tumors grew similar to untreated control tumors.” for “1.”"}, "FaDu tumors [4]": {"tested_on": "FaDu tumors", "assay": "BIWI 1 combination therapy with paclitaxel in the FaDu xenograft model", "assay_type": "in vivo, mouse", "protocol": "as §3\nMice were randomised into the following treatment groups (treatment/initial mean tumor volume/tumor volume range/number of mice): • Group 1: Control (PBS)/197 mm^3/65-402 mm^3/8 mice • Group 2: Paclitaxel/182 mm^3 /65%-302 mm^3/8 mice • Group 3: BIWI 1/208 mm^3 /65-382 mm^3/8 mice • Group 4: BIWI 1+paclitaxel/159 mm^3 /79-335 mm^3 /7 mice\nTreatment consisted either of five i.v. injections of BIWI 1 (7 mg/kg corresponding to 100 μg/kg DM1) at day 1, 3, 5, 8, 10, or of six i.p. injections of paclitaxel (10 mg/kg) at day 2, 4, 6, 9, 11, 13, respectively, or a combination thereof. Control animals were treated with PBS.\nOne tumor completely dissappeared during treatment and the animal remained tumor free until the end of the observation period."}, "[5]": {"conditions": "7 mg/kg/d or 21 mg/kg/d BIWI 1 i.v."}, "[6]": {"conditions": "BIWI 1 7 mg/kg i.v. x5, paclitaxel 10 mg/kg i.p. x6, or both"}}, "note": "pIC50: −log10 of the molar value. “And” between values parts separate entries of the source, which are not always exact repeats. Identical values can stand only once.", "data": [{"substance": "BIWI 1", "values": [{"measurement": "pIC50", "setting": "[1]", "result": "~7.12"}, {"measurement": "GDF4", "setting": "MDA-MB-453 tumors", "result": 1.3}, {"measurement": "T4T", "setting": "MDA-MB-453 tumors", "result": "14 days and 14.1 days"}, {"measurement": "T/C (d 16)", "setting": "MDA-MB-453 tumors", "result": 75, "unit": "%"}, {"measurement": "surviving fraction", "setting": "[2]", "result": 50, "unit": "%"}, {"measurement": "tumors with partial response", "setting": "A431 tumors; 2.1 mg/kg/d BIWI 1 i.v., 5 mice", "result": 2}, {"measurement": "complete responses", "setting": "A431 tumors; 2.1 mg/kg/d BIWI 1 i.v., no regrowth until day 134", "result": "3/5"}, {"measurement": "day on which tumors disappeared", "setting": "A431 tumors; [5]", "result": "~17", "unit": "days"}, {"measurement": "tumor regrowth until end of observation period (day 134)", "setting": "A431 tumors; [5]", "result": "No tumor regrowth"}, {"measurement": "tumor response", "setting": "A431 tumors; [5]", "result": "all tumors responded completely"}, {"measurement": "cross-reaction with mouse CD44v6", "setting": "mouse CD44v6", "result": "does not cross-react"}, {"measurement": "tumor volume doubling time", "setting": "FaDu tumors [3]; 2.1 mg/kg/d BIWI 1 i.v.", "result": "approximately 5 days"}, {"measurement": "complete responses", "setting": "FaDu tumors [3]; 7 mg/kg/d BIWI 1 i.v.", "result": "1/6"}, {"measurement": "partial responses", "setting": "FaDu tumors [3]; 7 mg/kg/d BIWI 1 i.v.", "result": "3/6"}, {"measurement": "day on which tumors disappeared", "setting": "FaDu tumors [3]; 21 mg/kg/d BIWI 1 i.v.", "result": "~24", "unit": "days"}, {"measurement": "tumor regrowth until end of observation period (day 107)", "setting": "FaDu tumors [3]; 21 mg/kg/d BIWI 1 i.v.", "result": "No tumor regrowth"}, {"measurement": "tumor response", "setting": "FaDu tumors [3]; 21 mg/kg/d BIWI 1 i.v.", "result": "all tumors responded completely"}, {"measurement": "Initial Tumor Doubling Time", "setting": "FaDu tumors [4]; BIWI 1 7 mg/kg i.v. day 1,3,5,8,10, paclitaxel 10 mg/kg i.p. day 2,4,6,9,11,13, or both", "result": 7, "unit": "days"}, {"measurement": "Complete Regression", "setting": "FaDu tumors [4]; [6]", "result": "0/8"}, {"measurement": "Growth Delay Factor", "setting": "FaDu tumors [4]; [6]", "result": 0.75}, {"measurement": "partial response", "setting": "FaDu tumors [4]; BIWI 1 monotherapy 7 mg/kg i.v. x5", "result": "3/8"}]}]}
